Measurements as given in ChEMBL document CHEMBL1201862, “PubChem BioAssay data set” (2004).
Activity calls are given as the source filed them.

How the values were obtained:
INS1 = test: beta cell apoptosis inhibitors, cytokine rescue, dose response, luminescence, retest (AID 449756); format: functional, cell-based; conditions: Rattus norvegicus;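 further: cell death triggered by IL-1 beta plus TNF-alpha plus IFN-gamma mixture; protective hits raise ATP signal compared with cytokine alone wells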
Streptococcus = test: Group A Streptococcus viability loss, dose response, counter-screen for streptokinase expression inhibitor project, luminescence, BacTiterGlo (AID 1915); format: functional, organism-based;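 further: potency for reduction of bacterial viability or growth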
[1] = system: Streptococcus sp. 'group A'; test: growth inhibition of control SK(-) GAS strain, dose response, counter-screen for streptokinase expression inhibitor project, luminescence, kanamycin, BacTiterGlo, confirmation (AID 1900); format: functional, organism-based
Streptokinase A = biological target: T1, Streptokinase A (Streptococcus pyogenes serotype M1, UniProt P10520); test: S. pyogenes streptokinase expression inhibitors, potency, dose response, plasminogen activation absorbance, OD405 (AID 1914); format: functional, Streptococcus pyogenes M1 GAS;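 further: secreted streptokinase activity via plasminogen activation per viability signal from cell pellet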
T1 sequence (P10520 whole entry): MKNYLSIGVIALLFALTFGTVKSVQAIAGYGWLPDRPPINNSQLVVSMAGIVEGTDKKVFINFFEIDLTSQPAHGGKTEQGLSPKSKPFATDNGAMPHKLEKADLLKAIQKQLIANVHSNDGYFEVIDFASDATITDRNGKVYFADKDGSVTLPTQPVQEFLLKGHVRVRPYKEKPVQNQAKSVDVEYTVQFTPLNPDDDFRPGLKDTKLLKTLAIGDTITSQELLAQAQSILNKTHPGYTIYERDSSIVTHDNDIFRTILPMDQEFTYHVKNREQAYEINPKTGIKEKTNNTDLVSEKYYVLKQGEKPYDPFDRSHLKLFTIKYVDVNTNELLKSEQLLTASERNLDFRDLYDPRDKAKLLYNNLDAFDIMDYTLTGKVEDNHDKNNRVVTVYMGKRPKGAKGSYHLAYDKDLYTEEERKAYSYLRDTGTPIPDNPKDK

[2] = biological target: Luciferin 4-monooxygenase (Photinus pyralis, UniProt P08659); test: firefly luciferase enzyme inhibitors, dose response, biochemical, luminescence (AID 1891)
Sequence of Luciferin 4-monooxygenase (P08659 whole entry): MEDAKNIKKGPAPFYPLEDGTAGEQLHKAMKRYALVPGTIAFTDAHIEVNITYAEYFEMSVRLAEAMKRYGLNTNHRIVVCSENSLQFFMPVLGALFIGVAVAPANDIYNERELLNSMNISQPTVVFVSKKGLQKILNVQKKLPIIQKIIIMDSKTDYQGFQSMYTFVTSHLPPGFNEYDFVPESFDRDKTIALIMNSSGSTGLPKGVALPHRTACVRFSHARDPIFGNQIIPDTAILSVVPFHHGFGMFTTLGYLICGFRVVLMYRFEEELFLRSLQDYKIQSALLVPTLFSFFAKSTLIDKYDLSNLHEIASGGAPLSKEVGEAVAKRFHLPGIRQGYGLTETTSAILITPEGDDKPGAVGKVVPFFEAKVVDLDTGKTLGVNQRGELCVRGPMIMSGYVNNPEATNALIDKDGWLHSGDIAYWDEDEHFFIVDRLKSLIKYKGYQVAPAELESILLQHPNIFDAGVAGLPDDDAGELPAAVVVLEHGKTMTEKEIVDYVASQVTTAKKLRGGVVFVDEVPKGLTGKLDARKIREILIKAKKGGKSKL

[3] = Luminescence Cell-Based Dose Confirmation HTS to Identify Inhibitors of Platelet Dense Granule Release. [Related pubchem assays: 1663 (Primary HTS), 1678 (Summary of Project)]; format: functional
Cytochrome P450 2C9 = Cytochrome P450 2C9 (Homo sapiens, UniProt P11712)
Sequence of Cytochrome P450 2C9 (P11712 whole entry): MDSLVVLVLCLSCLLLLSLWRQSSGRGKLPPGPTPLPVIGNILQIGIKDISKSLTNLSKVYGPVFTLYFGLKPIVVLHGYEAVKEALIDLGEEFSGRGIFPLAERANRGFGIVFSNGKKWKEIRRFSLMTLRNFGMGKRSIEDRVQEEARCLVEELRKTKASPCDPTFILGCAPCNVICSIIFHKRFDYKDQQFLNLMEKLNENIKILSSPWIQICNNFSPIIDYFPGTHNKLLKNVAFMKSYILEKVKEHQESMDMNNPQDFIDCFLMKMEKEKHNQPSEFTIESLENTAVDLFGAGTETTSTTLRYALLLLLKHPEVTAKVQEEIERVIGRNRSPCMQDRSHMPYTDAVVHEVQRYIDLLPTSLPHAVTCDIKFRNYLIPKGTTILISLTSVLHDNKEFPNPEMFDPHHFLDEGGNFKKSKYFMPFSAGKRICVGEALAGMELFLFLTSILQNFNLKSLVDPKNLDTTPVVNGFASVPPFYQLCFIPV

Cytochrome P450 2C19 = Cytochrome P450 2C19 (Homo sapiens, UniProt P33261); test: Cytochrome panel assay with activity outcomes. Panel member name: p450-cyp2c19 Compounds with AC50 equal or less than 10 uM are considered active; format: functional; conditions: read-out: AC50
Sequence of Cytochrome P450 2C19 (P33261 whole entry): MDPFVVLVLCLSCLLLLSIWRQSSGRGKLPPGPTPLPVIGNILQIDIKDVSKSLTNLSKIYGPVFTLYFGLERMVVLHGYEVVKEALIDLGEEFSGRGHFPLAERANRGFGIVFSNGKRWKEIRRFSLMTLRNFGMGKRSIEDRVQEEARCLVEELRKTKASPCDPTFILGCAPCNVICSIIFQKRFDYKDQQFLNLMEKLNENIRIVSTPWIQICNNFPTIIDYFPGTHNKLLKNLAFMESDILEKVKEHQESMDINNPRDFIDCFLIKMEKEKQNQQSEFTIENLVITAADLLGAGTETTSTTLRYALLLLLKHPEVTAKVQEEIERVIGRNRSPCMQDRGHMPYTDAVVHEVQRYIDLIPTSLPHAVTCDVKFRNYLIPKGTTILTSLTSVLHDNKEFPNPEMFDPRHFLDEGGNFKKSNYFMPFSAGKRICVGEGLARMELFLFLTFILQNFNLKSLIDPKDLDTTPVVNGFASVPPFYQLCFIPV

Cytochrome P450 3A4 = Cytochrome P450 3A4 (Homo sapiens, UniProt P08684);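 further: CYP3A4 tested as one member of a cytochrome P450 panel screen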
Sequence of Cytochrome P450 3A4 (P08684 whole entry): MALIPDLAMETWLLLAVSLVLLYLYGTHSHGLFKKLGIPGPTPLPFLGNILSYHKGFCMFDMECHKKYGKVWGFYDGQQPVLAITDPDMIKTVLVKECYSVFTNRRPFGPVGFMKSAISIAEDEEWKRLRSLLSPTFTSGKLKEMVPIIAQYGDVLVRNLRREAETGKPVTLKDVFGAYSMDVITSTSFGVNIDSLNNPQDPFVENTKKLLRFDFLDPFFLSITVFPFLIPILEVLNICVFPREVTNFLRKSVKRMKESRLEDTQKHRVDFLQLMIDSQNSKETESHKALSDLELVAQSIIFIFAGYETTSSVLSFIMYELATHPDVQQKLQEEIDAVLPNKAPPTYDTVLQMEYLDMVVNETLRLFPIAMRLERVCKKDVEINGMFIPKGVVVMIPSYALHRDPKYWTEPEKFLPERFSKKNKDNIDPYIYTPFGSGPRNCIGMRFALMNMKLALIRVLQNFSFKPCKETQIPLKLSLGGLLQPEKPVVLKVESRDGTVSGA

[4] = biological target: T2, Rac GTPase-activating protein 1 (Homo sapiens, UniProt Q9H0H5); test: MgcRacGAP GTPase-activating activity inhibitors, confirmation, biochemical, ADP Hunter fluorescence, primary and confirmatory (AID 624330); format: functional
T2 sequence (Q9H0H5 whole entry): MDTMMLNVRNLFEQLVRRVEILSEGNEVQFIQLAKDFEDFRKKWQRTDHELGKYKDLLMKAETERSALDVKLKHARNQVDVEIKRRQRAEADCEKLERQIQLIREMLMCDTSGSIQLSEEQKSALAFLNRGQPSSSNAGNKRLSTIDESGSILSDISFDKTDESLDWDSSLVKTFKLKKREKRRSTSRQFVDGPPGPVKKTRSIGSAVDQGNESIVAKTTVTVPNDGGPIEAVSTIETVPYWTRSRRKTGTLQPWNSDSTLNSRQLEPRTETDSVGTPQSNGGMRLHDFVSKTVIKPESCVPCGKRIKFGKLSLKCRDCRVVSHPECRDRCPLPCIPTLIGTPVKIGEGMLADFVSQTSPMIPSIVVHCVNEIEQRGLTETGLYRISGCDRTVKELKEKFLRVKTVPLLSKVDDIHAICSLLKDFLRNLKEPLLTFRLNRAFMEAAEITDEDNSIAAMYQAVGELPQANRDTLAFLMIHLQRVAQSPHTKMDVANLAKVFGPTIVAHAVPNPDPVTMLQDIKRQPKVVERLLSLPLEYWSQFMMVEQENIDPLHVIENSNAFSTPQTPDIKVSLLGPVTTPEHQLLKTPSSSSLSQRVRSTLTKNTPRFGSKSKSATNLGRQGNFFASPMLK

[5] = HEp-2 cell cytotoxicity, dose response, cytotoxicity control for RSV inhibitor project, HTS (AID 2410); format: functional; conditions: human respiratory syncytial virus
[6] = cytotoxicity toward NIH3T3 fibroblasts, dose response, counter-screen, cell-based, ATP luminescence, mouse fibroblasts (AID 2010); format: functional;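 further: cells exposed to compound for about 90 hours before reading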
[7] = inhibitors of intracellular T. cruzi replication, confirmation, NIH3T3 host cells, beta-gal luminescence (AID 2044); format: functional, cell-based;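 further: intracellular parasites grown in NIH/3T3 mouse fibroblasts as host cells; luminescent beta-galactosidase reporter signal from transgenic T. cruzi replicating inside host cells; inhibitors lower the luminescence signal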
[8] = Luminescence Cell-Based Dose Retest to Confirm Inhibitors of Cancer Stem Cells. [Related pubchem assays (depositor defined):AID2717, AID2721]; format: functional; conditions: Homo sapiens
Cytochrome P450 1A2 = biological target: T3, Cytochrome P450 1A2 (Homo sapiens, UniProt P05177);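 further: PubChem cytochrome P450 panel assay, CYP1A2 panel member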
T3 sequence (P05177 whole entry): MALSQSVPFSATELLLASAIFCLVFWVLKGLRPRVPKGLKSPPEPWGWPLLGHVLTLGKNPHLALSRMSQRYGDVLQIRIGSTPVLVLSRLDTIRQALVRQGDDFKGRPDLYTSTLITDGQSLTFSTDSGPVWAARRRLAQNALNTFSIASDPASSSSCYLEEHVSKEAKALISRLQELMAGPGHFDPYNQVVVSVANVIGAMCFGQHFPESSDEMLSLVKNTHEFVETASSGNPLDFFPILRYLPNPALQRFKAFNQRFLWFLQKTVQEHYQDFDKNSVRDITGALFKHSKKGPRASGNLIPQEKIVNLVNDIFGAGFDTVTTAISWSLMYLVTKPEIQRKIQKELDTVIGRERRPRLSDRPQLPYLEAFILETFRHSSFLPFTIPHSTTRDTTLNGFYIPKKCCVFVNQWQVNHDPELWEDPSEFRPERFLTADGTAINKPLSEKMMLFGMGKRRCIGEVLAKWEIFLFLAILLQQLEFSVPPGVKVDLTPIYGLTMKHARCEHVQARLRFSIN

## CCO[C@H]1OC(C(=O)N2CCN(Cc3ccc4c(c3)OCO4)CC2)=C[C@@H](c2csc3ccccc23)[C@@H]1CCCO
INS1
  AC50: 6.83 µM (active)

## O=C(CSc1nnc(CNC(=O)c2c(F)cccc2F)o1)NCCc1ccccc1
Streptococcus
  EC50: > 150 µM (not active)
[1]
  EC50: > 150 µM (not active)
Streptokinase A
  EC50: > 150 µM (not active)

## Cc1cc(O)nc2ccc(S(=O)(=O)NC3CCCCC3)cc12
[2]
  EC50: > 112 µM (not active)
[3]
  EC50: 3.55 µM (active)

## CCNC(=O)[C@H]1O[C@@H](n2cnc3c(N)ncnc32)[C@H](O)[C@@H]1O [NECA]
[3]
  EC50: < 0.088 µM (active)

## CC(C)[C@@H](CO)NC(=O)c1ccc2c3n(nc2c1)-c1ccccc1CO3
[2]
  EC50: 6.1 µM (active)
[3]
  EC50: 2.69 µM (active)

## COC(=O)c1ccc(/C=C/c2nc(O)c3ccccc3n2)cc1
[2]
  EC50: 17.7 µM (active)
[3]
  EC50: 7.02 µM (active)

## COc1ccc(Cc2nnc(NC(=O)CSc3ccc(C)cc3)s2)cc1OC
Cytochrome P450 2C9
  AC50: 2.51 µM (inconclusive)
Cytochrome P450 2C19
  AC50: 0.891 µM (inconclusive)

## Cc1ccc(CS(=O)(=O)Cc2ccc(C(=O)NCC3CCCO3)o2)cc1 (configuration not stated)
Cytochrome P450 3A4
  AC50: 15.8 µM (inconclusive)
Cytochrome P450 2C9
  AC50: 39.8 µM (inconclusive)
Cytochrome P450 2C19
  AC50: 31.6 µM (inconclusive)

## Fc1ccc(N2CCN(Cc3c[nH]nc3-c3ccccc3)CC2)cc1
Streptococcus
  EC50: > 150 µM (not active)
[1]
  EC50: > 150 µM (not active)
Streptokinase A
  EC50: > 150 µM (not active)

## O=C(CNCc1ccco1)Nc1cccc(S(=O)(=O)N2CCCCC2)c1
[4]
  IC50: 169 µM (active)

## C/C(=N\Nc1ccc(Cl)c(Cl)c1)c1ccc(-n2ccnc2)cc1
Streptococcus
  EC50: 11.9 µM (active)
[1]
  EC50: 3.05 µM (active)
[5]
  CC50: 35.9 µM (active)
Streptokinase A
  EC50: 17.2 µM (active)

## O=c1oc(-c2ccc(O)c(O)c2)cc2cccc(O)c12 [THUNBERGINOL A]
[4]
  IC50: 19.7 µM (active)

## O=C(Nc1cccnc1)C1(F)C(F)(F)C(F)(F)C(F)(F)C(F)(F)C1(F)F
INS1
  AC50: 3.18 µM (active)

## Cc1cc(OCCCCCN2CCCC2)ccc1Cl
[6]
  EC50: 19.2 µM (active)
[4]
  IC50: 131 µM (active)
[7]
  EC50: 1.23 µM (active)

## CCN(CC)c1nc(C(F)(F)F)nc2c1nnn2Cc1ccccc1
Streptococcus
  EC50: > 150 µM (not active)
[1]
  EC50: 7.21 µM (active)
Streptokinase A
  EC50: 12.4 µM (active)

## O=C(NC(=S)Nc1ccc(N2CCCCC2)c(Cl)c1)c1ccc2c(c1)OCCO2
[8]
  AC50: 2.54 µM (active)

## CCOC(=O)c1sc2nccc(N(C)C)c2c1N=CNOCc1c(F)cccc1Cl
[6]
  EC50: > 60 µM (not active)
Streptococcus
  EC50: > 150 µM (not active)
[1]
  EC50: 11.6 µM (active)
[7]
  EC50: 1.26 µM (active)
Streptokinase A
  EC50: 27 µM (active)

## O=C(Nc1ccc(Cl)cc1)OCc1cc(-c2ccccc2Cl)on1
Cytochrome P450 2C9
  AC50: 1.12 µM (inconclusive)
[2]
  EC50: > 112 µM (not active)
[3]
  EC50: > 112 µM (not active)

## O=C1NC(=O)C(=Cc2ccco2)C(=O)N1
[4]
  IC50: 141 µM (active)

## COc1ccc2nc(C3CCCCC3)nc(C3CCCCC3)c2c1
Streptococcus
  EC50: 5.71 µM (active)
[1]
  EC50: 2.8 µM (active)
Streptokinase A
  EC50: > 150 µM (not active)

## CCOC(=O)c1c(C)oc2cc(Br)c(OC(=O)N3CCOCC3)cc12
[2]
  EC50: > 112 µM (not active)
[3]
  EC50: > 112 µM (not active)

## O=C1c2ccccc2C(=O)c2c(NC3CCCCC3)ccc(Nc3ccc(S(=O)(=O)O)cc3)c21
Cytochrome P450 1A2
  AC50: 1.26 µM (inconclusive)

## CCOc1cc(S(=O)(=O)Nc2ccc(CC)cc2)ccc1Cl
[8]
  AC50: 6.17 µM (active)

## O=C(NC(=S)Nc1cccc(Cl)c1N1CCCC1)c1ccc(-c2cccc([N+](=O)[O-])c2)o1
Cytochrome P450 2C9
  AC50: 5.01 µM (inconclusive)
Cytochrome P450 1A2
  AC50: 25.1 µM (inconclusive)

## O=C(Nc1ccccc1)/C(=C\c1ccc2c(c1)OCO2)NC(=O)c1ccco1
Cytochrome P450 3A4
  AC50: 20 µM (inconclusive)
Cytochrome P450 2C19
  AC50: 22.4 µM (inconclusive)
Cytochrome P450 1A2
  AC50: 25.1 µM (inconclusive)

## CCOC(=O)c1c(-c2ccc(OC)cc2)csc1NC(=O)CCN1C(=O)c2ccccc2C1=O
Cytochrome P450 3A4
  AC50: 4.47 µM (inconclusive)
Cytochrome P450 1A2
  AC50: 12.6 µM (inconclusive)

## COc1ccc2cc(C(=O)N/N=C/c3sc4ccccc4c3O)ccc2c1
INS1
  AC50: 3.02 µM (active)
[8]
  AC50: 1.61 µM (active)

## O=C(CCCN1C(=O)/C(=C/c2ccccc2)SC1=S)NCCCn1ccnc1
INS1
  AC50: 21.2 µM (active)
[8]
  AC50: 76.3 µM (active)

## O=C(Cn1cnc2c(cnn2-c2ccccc2)c1=O)OCc1ccccc1
[2]
  EC50: > 112 µM (not active)
[3]
  EC50: > 112 µM (not active)

## c1cc(N2CCCC3(CCNCC3)C2)ccn1
Cytochrome P450 3A4
  AC50: 12.6 µM (inconclusive)
Cytochrome P450 2C9
  AC50: 25.1 µM (inconclusive)
Cytochrome P450 2C19
  AC50: 25.1 µM (inconclusive)

## CCOC(=O)C(/C=N/c1ccc(C(O)(C(=O)OCC)C(F)(F)F)cc1C)=C(/O)OCC (configuration not stated)
INS1
  AC50: 6.01 µM (active)

## CCCC/C=C/C(NC(=O)c1ccc(-c2ccccc2)cc1)c1ccccc1 (configuration not stated)
Cytochrome P450 1A2
  AC50: 15.8 µM (inconclusive)

## CSc1nc(C)c2c(n1)N(c1ccc(C(C)C)cc1)CC2
Cytochrome P450 2C9
  AC50: 11.2 µM (inconclusive)
Cytochrome P450 2C19
  AC50: 17.8 µM (inconclusive)

## CCn1cc(C(=O)O)c(=O)c2cc(F)c(N/N=C/c3ccccc3[N+](=O)[O-])cc21
Streptococcus
  EC50: 13.4 µM (active)
INS1
  AC50: 10.1 µM (active)
[1]
  EC50: 4.31 µM (active)
Streptokinase A
  EC50: > 150 µM (not active)

## Cc1ccc(C(=O)NNC2=Nc3cccc4cccc2c34)cc1
Streptococcus
  EC50: > 150 µM (not active)
[1]
  EC50: 3.26 µM (active)
Streptokinase A
  EC50: > 150 µM (not active)

## CNC[C@H](CC1CCCCC1)NC[C@H](CO)NCCc1cccc(C(F)(F)F)c1
[5]
  CC50: 12.5 µM (active)
[8]
  AC50: 7.61 µM (active)

## CNC(=O)[C@H](C)[C@@H]1C[C@@]1(C)[C@@H](NC(=O)OCc1ccccc1)c1ccccc1
Cytochrome P450 1A2
  AC50: 20 µM (inconclusive)

## Cc1ccc(OCCCC(=O)N2CCOCC2)cc1
Cytochrome P450 3A4
  AC50: 25.1 µM (inconclusive)
Cytochrome P450 2C9
  AC50: 39.8 µM (inconclusive)
Cytochrome P450 1A2
  AC50: 25.1 µM (inconclusive)

## C(=N\N1CCOCC1)/c1nc(-c2ccccc2)n2ccccc12
[4]
  IC50: 22.3 µM (active)

## C[C@@H](C(=O)Nc1ccc2ccccc2c1)[C@@H]1C[C@@]1(C)[C@@H](N)c1ccccc1
Cytochrome P450 2C9
  AC50: 25.1 µM (inconclusive)

## COc1ccc(-c2nc3ccccc3c(=O)n2N)cc1
Cytochrome P450 2C9
  AC50: 2.82 µM (inconclusive)
Cytochrome P450 2C19
  AC50: 0.631 µM (inconclusive)

## Cc1ccccc1NCc1ccc([N+](=O)[O-])s1
[8]
  AC50: 11 µM (active)
